Data as given in patent US20160340322A1 (NISSAN CHEMICAL INDUSTRIES, LTD., priority 2013, published 2016).

biological target: T1, Human T-type calcium channel (Cav 3.2) (Homo sapiens, UniProt O95180); test: Calcium Influx Inhibition Assay; assay type: cell-based; conditions: human T-type calcium channel (Cav 3.2) expressing HEK293 cells; FLIPR Calcium 4 fluorescence; 30 min compound incubation; read-out: T-type calcium channel inhibition concentration IC50
T1 construct: Edward Perez-Reyes, University of Virginia, USA; host or cells: HEK293
T1 sequence (O95180 whole entry): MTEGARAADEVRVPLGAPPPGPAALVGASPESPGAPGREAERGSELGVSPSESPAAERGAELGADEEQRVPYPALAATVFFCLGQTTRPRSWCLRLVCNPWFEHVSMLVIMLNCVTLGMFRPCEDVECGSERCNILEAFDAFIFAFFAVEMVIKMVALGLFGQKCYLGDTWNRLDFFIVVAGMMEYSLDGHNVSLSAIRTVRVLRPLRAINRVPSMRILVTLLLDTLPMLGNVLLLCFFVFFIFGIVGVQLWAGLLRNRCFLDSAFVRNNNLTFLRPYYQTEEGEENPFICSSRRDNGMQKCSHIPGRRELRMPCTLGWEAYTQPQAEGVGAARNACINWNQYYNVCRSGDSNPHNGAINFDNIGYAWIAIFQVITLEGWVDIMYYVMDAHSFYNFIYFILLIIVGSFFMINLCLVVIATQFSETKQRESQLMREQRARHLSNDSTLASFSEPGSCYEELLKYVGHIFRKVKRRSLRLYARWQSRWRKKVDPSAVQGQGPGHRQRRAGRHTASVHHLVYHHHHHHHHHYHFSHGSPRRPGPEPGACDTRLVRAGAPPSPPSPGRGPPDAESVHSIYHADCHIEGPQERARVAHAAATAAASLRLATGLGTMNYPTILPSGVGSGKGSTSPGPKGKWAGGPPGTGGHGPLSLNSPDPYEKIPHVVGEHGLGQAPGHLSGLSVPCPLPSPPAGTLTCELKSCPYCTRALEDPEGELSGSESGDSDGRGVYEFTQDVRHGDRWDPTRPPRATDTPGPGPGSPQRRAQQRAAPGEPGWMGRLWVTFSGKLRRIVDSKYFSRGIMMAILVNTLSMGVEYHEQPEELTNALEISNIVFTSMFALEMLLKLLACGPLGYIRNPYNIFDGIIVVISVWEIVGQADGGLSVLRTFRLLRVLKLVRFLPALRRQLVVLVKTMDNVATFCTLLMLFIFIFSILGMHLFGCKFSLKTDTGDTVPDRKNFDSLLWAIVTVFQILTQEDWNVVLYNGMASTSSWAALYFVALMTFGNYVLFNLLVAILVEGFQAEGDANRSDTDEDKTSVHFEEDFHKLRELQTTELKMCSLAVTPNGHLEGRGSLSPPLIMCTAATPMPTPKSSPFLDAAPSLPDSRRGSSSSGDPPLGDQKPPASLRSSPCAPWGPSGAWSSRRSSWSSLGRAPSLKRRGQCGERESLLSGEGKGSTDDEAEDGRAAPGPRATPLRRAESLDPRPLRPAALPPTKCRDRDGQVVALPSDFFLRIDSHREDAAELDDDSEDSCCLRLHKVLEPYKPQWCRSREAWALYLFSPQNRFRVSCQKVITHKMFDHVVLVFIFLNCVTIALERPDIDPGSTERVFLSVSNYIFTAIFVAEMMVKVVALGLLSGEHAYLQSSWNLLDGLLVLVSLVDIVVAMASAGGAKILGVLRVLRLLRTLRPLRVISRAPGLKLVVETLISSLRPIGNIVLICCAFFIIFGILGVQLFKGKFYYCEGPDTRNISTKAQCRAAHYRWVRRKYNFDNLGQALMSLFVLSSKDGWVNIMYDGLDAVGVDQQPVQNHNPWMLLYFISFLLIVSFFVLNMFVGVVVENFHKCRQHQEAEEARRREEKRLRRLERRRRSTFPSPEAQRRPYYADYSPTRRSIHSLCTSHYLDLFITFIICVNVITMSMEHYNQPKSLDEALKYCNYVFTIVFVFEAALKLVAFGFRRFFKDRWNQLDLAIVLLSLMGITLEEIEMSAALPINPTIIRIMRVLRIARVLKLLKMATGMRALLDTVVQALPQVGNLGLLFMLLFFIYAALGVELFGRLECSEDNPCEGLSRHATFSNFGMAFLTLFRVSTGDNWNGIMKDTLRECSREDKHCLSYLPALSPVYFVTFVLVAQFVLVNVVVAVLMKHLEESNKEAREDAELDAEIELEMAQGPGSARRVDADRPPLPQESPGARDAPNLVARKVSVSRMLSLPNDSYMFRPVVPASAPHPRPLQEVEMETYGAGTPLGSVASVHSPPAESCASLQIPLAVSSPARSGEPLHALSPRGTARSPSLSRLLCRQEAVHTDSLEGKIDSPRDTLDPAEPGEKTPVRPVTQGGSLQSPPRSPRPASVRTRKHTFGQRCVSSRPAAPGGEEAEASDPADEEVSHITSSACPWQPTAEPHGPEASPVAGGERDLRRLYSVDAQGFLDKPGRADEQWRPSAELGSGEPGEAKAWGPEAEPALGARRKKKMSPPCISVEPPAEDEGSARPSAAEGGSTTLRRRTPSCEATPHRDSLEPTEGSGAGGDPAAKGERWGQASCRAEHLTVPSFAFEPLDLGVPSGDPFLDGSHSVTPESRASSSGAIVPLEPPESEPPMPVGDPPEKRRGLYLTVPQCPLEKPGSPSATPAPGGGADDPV
Protocol: 1. Calcium Influx Inhibition Assay Human T-type calcium channel (Cav 3.2) expressing HEK293 cells were introduced from Prof. Edward Perez-Reyes, University of Virginia, USA. The calcium-sensitive fluorescent dye used was FLIPR Calcium 4 Assay Kit (Molecular Devices). To a black 96-well plate with a clear bottom coated with type I collagen, the human T-type calcium channel (Cav 3.2) expressing HEK293 cells were seeded and cultured overnight, and the culture medium was removed. A solution of the calcium-sensitive fluorescent dye was added, and the resultant plate was incubated at 37° C. in an atmosphere of 5% carbon dioxide for 30 minutes. To the plate, a diluted solution of a compound was added, and subjected to further incubation at 37° C. in an atmosphere of 5% carbon dioxide for 30 minutes. While fluorescence was continuously analyzed from the bottom with a FlexStation 3 (Molecular Devices), a calcium solution was added. […] Based on the rise value in the fluorescence from the base line, the inhibition percentage was calculated. The logarithms of compound concentrations were plotted with respect to the inhibition activities to obtain an IC50 value.

For `O=c1nc(N2CCc3cc(C(F)(F)F)ccc3C2)cnn1Cc1cnc(C(F)(F)F)s1` [Synthesis Example 44, 5-[6-(trifluoromethyl)-3,4-dihydroisoquinolin-2-(1H)-yl]-2-{[2-(trifluoromethyl)thiazol-5-yl]methyl}-1,2,4-triazin-3(2H)-one], which IC50 is on record?
Its IC50 is 570 nM.

`Cc1cc(C2=CCN(c3cnn(Cc4cnc(C(F)(F)F)s4)c(=O)n3)C[C@@H]2O)cs1` [Synthesis Example 12, (R)-5-[5-Hydroxy-4-(5-methylthiophen-3-yl)-5,6-dihydropyridin-1(2H)-yl]-2-{[2-(trifluoromethyl)thiazol-5-yl]methyl}-1,2,4-triazin-3(2H)-one] was tested. Which IC50 did it give?
Its IC50 is 26 nM.

Which IC50 does the source give for `O=c1nc(N2CCN(c3ccc(F)cc3)CC2)cnn1Cc1ccc(C(F)(F)F)s1` [Synthesis Example 5, 5-[4-(4-Fluorophenyl)piperazin-1-yl]-2-{[5-(trifluoromethyl)thiophen-2-yl]methyl}-1,2,4-triazin-3(2H)-one] here?
Its IC50 is 27 nM.

How did the IC50 turn out when `O=c1nc(N2CC=C(c3ccc(F)cc3)[C@@H](O)C2)cnn1Cc1ccc(OC(F)F)nc1` [Synthesis Example 28, (R)-2-{[6-(Difluoromethoxy)pyridin-3-yl]methyl}-5-[4-(4-fluorophenyl)-5-hydroxy-5,6-dihydropyridin-1(2H)-yl]-1,2,4-triazin-3(2H)-one] was run?
The IC50 was 94 nM.

For `O=c1nc(N2CCN(c3ccc(F)c(Cl)c3)CC2)cnn1Cc1cnc(C(F)(F)F)s1` [Synthesis Example 21, 5-[4-(3-Chloro-4-fluorophenyl)piperazin-1-yl]-2-{[2-(trifluoromethyl)thiazol-5-yl]methyl}-1,2,4-triazin-3(2H)-one], which IC50 is on record?
The IC50 was 230 nM.

`CCOc1ccc2c(c1)C(O)CN(c1cnn(Cc3cnc(C(F)(F)F)s3)c(=O)n1)C2` (centres unmarked) [Synthesis Example 18, 5-[6-Ethoxy-4-hydroxy-3,4-dihydroisoquinolin-2(1H)-yl]-2-{[2-(trifluoromethyl)thiazol-5-yl]methyl}-1,2,4-triazin-3(2H)-one] was tested. Which IC50 did it give?
Its IC50 is 2900 nM.

`Cc1ccc(C2=CCN(c3cnn(Cc4ccc(C(F)(F)F)s4)c(=O)n3)C[C@@H]2O)cc1F` [Synthesis Example 52, (R)-5-[4-(3-Fluoro-4-methylphenyl)-5-hydroxy-5,6-dihydropyridin-1(2H)-yl]-2-{[5-(trifluoromethyl)thiophen-2-yl]methyl}-1,2,4-triazin-3(2H)-one] was tested. Which IC50 did it give?
The IC50 was 7.9 nM.

`O=c1nc(N2CCN(c3ccc(F)cc3)CC2)cnn1Cc1ccc(OCc2ccc(Cl)cc2)cc1` [Synthesis Example 3, 2-{4-[(4-Chlorobenzyl)oxy]benzyl}-5-[4-(4-fluorophenyl)piperazin-1-yl]-1,2,4-triazin-3(2H)-one] was tested. Which IC50 did it give?
The IC50 was 200 nM.

`O=c1nc(N2CC=C(c3ccc(F)cc3)[C@@H](O)C2)cnn1Cc1ccc(C(F)(F)F)o1` [Synthesis Example 27, (R)-5-[4-(4-Fluorophenyl)-5-hydroxy-5,6-dihydropyridin-1(2H)-yl]-2-{[5-(trifluoromethyl)furan-2-yl]methyl}-1,2,4-triazin-3(2H)-one] was tested. Which IC50 did it give?
Its IC50 is 130 nM.

With `O=c1nc(N2CC=C(c3ccc(F)cc3)[C@@H](O)C2)cnn1Cc1cnc(C(F)(F)F)s1` [Synthesis Example 11, (R)-5-[4-(4-Fluorophenyl)-5-hydroxy-5,6-dihydropyridin-1(2H)-yl]-2-{[2-(trifluoromethyl)thiazol-5-yl]methyl}-1,2,4-triazin-3(2H)-one] as the compound, how does the IC50 read?
Its IC50 is 30 nM.

`NC1CN(c2cnn(Cc3ccc(C(F)(F)F)s3)c(=O)n2)CC=C1c1ccc(F)cc1` (centres unmarked) [Synthesis Example 36, 5-[5-Amino-4-(4-fluorophenyl)-5,6-dihydropyridin-1(2H)-yl]-2-{[5-(trifluoromethyl)thiophen-2-yl]methyl}-1,2,4-triazin-3(2H)-one] was tested. Which IC50 did it give?
The IC50 was 3.4 nM.
